This note sets out measurements from paper PMC8637440, “Structural Modifications Yield Novel Insights Into the Intriguing Pharmacodynamic Potential of Anti-inflammatory Nitro-Fatty Acids” (Frontiers in Pharmacology, 2021).

One experiment deals with NF-κB p65. In words: NF-κB p65 transcription factor ELISA in TNFα-stimulated HCT-116 cells. The note with it: Homo sapiens; 10 µM, 14 h preincubation, then 10 ng/ml TNF-α 4 h, HCT-116, ELISA; read-out: inhibition of NF-κB p65 signaling. The experiment is classed as cell-based. The protocol: (§1) The Nrf-2 and NF-κB transcription factors in the nuclear extracts were detected using an Nrf-2 Transcription Assay Kit (Cayman Chemical, # 600590) and NF-κB (p65 and p50) Transcription Factor Assay Kit (Cayman Chemical, # 10007889 and # 10006912). Prior to assay performance, the nuclear extracts were generated using a Nuclear Extraction Kit (Cayman Chemical, # 10009277). The assay was performed according to the manufacturer’s instructions. For all kits, the nuclear extracts were incubated overnight at 4°C. Development was carried out for 15–20 min or until the wells turned medium to dark blue. Five minutes after the stop solution had been added, the absorbance was read at 450 nm using a plate reader.
(§2) The proteasome inhibitor MG132 ([Lee and Goldberg, 1998]) was used as a positive control, as proteasomal inhibition leads to stabilization of I-κB and thus inhibits the activation of the NF-κB signaling pathway. We used a MG132 incubation period of 4 h as longer incubations have been described to activate NF-κB signaling ([Lee et al., 2013]).
(§3) FIGURE 1 Effects of NFA on the NF-κB p65 and p50 signaling pathway in colorectal cancer cells. […] Incubation for 4 h with the proteasome inhibitor MG132 (1 µM) served as the positive control. […] Values are normalized to protein concentration and unstimulated vehicle control. Data are represented as mean ± SD of (A) n = 3 (DMSO, 16.9.9, 9NOA control of right panel, 18.4.4, 18.6.7, and 18.9.10), n = 4 (all other derivatives) and (B) n = 5. Statistical significance was calculated by one-way analysis of variance (ANOVA) with Bonferroni post-test. *p ≤ 0.03, **p ≤ 0.0021, ***p ≤ 0.0002, ****p ≤ 0.0001 were considered significant versus TNF-α treatment.
(In an ELISA, binding on a coated surface is turned into a signal by an enzyme label.)

For another experiment, the system named is NF-κB p50. In words: NF-κB p50 transcription factor ELISA in TNFα-stimulated HCT-116 cells. The format is cell-based, human. The note with it: 14 h preincubation, then 10 ng/ml TNF-α 4 h, HCT-116, ELISA; for inhibition of NF-κB p50 signaling: 10 µM. The protocol:
as §1, §2, §3

The target of the next experiment is T1, COX-2 (Homo sapiens, UniProt P35354).
T1 sequence (P35354 18-604): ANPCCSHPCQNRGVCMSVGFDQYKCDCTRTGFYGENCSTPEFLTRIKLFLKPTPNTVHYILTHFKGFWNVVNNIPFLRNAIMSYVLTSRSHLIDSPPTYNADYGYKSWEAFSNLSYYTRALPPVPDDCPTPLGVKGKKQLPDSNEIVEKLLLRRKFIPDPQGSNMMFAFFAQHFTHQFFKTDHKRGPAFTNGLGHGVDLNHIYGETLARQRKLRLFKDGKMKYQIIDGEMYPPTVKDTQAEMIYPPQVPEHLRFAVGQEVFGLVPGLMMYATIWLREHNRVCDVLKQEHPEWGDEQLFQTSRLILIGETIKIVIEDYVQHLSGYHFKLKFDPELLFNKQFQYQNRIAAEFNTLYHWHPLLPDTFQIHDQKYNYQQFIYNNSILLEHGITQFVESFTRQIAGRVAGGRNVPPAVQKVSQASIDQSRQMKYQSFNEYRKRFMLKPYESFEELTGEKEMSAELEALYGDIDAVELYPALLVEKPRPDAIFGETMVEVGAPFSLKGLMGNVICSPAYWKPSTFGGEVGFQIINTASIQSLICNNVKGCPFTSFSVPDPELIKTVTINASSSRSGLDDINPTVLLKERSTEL
Briefly: Recombinant COX-2 peroxidase activity assay. The experiment is classed as biochemical. Also on record: purchased Cayman Chemicals #700100. The note with it: 30 min preincubation. The protocol:
The effects of NFA on COX-2 activity were analyzed using a recombinant COX-2 activity assay using a COX Fluorescent Inhibitor Screening Assay Kit (Cayman Chemicals, #700100). The assay was performed according to the manufacturer’s instructions in a black 96-well microplate. Human COX-2 was pre-incubated with NFA and control inhibitors for 30 min at RT following the addition of ADHP (10-acetyl-3,5-dihydroxyphenoxazine) and AA. The mixture was incubated again for 2 min at RT, and the fluorescence was measured at excitation/emission wavelengths of 535/587 nm.
FIGURE 4 Effects of NFA on COX-2 peroxidase activity. […] Peroxidase activity was measured by the appearance of TMPD. Data are presented as the percent of the control mean ± SD, n = 4. Statistical significance was calculated by one-way ANOVA with Bonferroni post-test. **p ≤ 0.0021, ***p ≤ 0.0002, ****p ≤ 0.0001 are considered significant.

In the next experiment the target is T2, sEH (Homo sapiens, UniProt P34913).
T2 sequence (P34913 1-555): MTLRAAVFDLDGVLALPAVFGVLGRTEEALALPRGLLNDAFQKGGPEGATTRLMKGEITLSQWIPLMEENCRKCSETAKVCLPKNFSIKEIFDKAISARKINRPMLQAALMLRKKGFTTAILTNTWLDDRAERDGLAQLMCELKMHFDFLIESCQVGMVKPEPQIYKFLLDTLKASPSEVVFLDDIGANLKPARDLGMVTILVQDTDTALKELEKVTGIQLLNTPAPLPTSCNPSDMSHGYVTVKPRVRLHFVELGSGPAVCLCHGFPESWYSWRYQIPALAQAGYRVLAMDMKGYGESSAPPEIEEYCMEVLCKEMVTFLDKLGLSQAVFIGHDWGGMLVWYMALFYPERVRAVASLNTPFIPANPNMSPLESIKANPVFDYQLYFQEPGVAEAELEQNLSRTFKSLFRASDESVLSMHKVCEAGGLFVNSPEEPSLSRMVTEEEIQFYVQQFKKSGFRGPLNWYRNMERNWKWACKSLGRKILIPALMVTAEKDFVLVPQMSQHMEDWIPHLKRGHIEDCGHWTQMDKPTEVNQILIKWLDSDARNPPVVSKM
Briefly: Cell-based sEH activity assay in HepG2 cells. The arrangement: endogenous in cells; host or cells: HepG2. The note with it: for inhibition of sEH activity in HepG2 cells: 10 µM, 24 h. The protocol:
sEH activity in the cells was analyzed using a Soluble Epoxide Hydrolase Cell-Based Assay Kit (Cayman Chemical, #600090). […] Following incubation, the cells were processed according to the manufacturer’s instructions. The assay uses an internal signal subtraction to minimize potential errors generated by sEH-independent product formation due esterase mediated hydrolysis. The fluorescence intensity of the samples was measured in a plate reader at excitation/emission wavelengths of 330/465 nm sEH activity was calculated by the 6-methoxy-2-naphthaldehyde standard curve.
FIGURE 3 Effects of NFA on sEH activity. […] Data are the mean ± SEM of n = 3–7. […] The cells were lysed, and hydrolase activity was measured by Epoxy Fluor 7 lysis. […] Statistical significance was calculated by one-way ANOVA with Bonferroni post-test and multiple comparisons against the DMSO control.

Molecules are shown by their SMILES. Bounds are passed on as bounds.

On to `CCCCCCCCCCC=C(CCCCCC(=O)O)[N+](=O)[O-]` [18.7.7, 7-nitro-octadec-7-enoic acid], for which, in the experiment with NF-κB p65, the inhibition (commonly the drop in the measured response relative to a control, in per cent) at 10 µM is ~90%. For the same compound, the “inhibition of NF-κB p50 signaling” value in the experiment on NF-κB p50 was “most effective p50 inhibitors”.

As for `CCCCCCCCCC=C(CCCCCCC(=O)O)[N+](=O)[O-]` [18.8.8, 8-nitro-octadec-8-enoic acid], in the experiment on NF-κB p65, the inhibition at 10 µM was found to be 50%. For the same compound, in the experiment with NF-κB p50, the “inhibition of NF-κB p50 signaling” value was “most effective p50 inhibitors”.

With `CCCCCCCCCC(=CCCCCCCC(=O)O)[N+](=O)[O-]` [18.8.9, 9-nitro-octadec-8-enoic acid], in the experiment with NF-κB p65, the inhibition at 10 µM worked out at 50%. Also, the “inhibition of NF-κB p50 signaling” value in the experiment on NF-κB p50 is “most effective p50 inhibitors”.

Take `CCCCCCCCC=C(CCCCCCCC(=O)O)[N+](=O)[O-]` [18.9.9, 9-nitro-octadec-9-enoic acid]: the inhibition at 10 µM in the experiment with NF-κB p65 was 50%; in the experiment on NF-κB p50 (Homo sapiens, read-out: inhibition of NF-κB p50 signaling) it was ~60%; at COX-2, > 65%. In addition, the “inhibition of NF-κB p50 signaling” value in the experiment with NF-κB p50 was “most effective p50 inhibitors”.

As for `CCCCCCCCC(=CCCCCCCCC(=O)O)[N+](=O)[O-]` [18.9.10, 10-nitro-octadec-9-enoic acid], the “inhibition of sEH activity in HepG2 cells” value (from here on “inhibition of sEH activity”) against sEH is on record as “most efficient enzyme inhibition”.

As for `CCCCCCCC=C(CCCCCCCCC(=O)O)[N+](=O)[O-]` [18.10.10, 10-nitro-octadec-10-enoic acid], on sEH, the “inhibition of sEH activity” value is given as “most efficient enzyme inhibition”. Further, at COX-2, the inhibition at 10 µM was > 90%.

Take `CCCCCCC=C(CCCCCCCCCC(=O)O)[N+](=O)[O-]` [18.11.11, 11-nitro-octadec-11-enoic acid]: on sEH, the “inhibition of sEH activity” value was “most efficient enzyme inhibition”.

As to `CCCCCCCCCCC=C(CCCCCCCC(=O)O)[N+](=O)[O-]` [20.9.9, 9-nitro-eicos-9-enoic acid], the inhibition at 10 µM at COX-2 was > 85%.

With `CCCCCCCC/C=C\CCCCCCCC(=O)O` [OA, oleic acid, reference compound], at sEH, the “inhibition of sEH activity” value was “strong suppressive effect”. For the same compound, the inhibition at 10 µM against sEH (HepG2, 24 h) was > 50%. Also, the “inhibition of recombinant COX-2 peroxidase activity” value on COX-2 (10 µM) is “only weakly affected”.
